SMILES strings stand for the structures. Bounds are passed on as bounds.

A short description of series [1]: Volume of distribution in female cynomolgus monkey at 15 mg/kg, iv measured on day 1. Type of series: ADME, organism-based, Macaca fascicularis. The conditions noted are these: in vivo.
The nature of series [2]: Cmax in po BID dosed cynomolgus monkey administered for 28 days. Type of series: ADME, organism-based, Macaca fascicularis. More on the design: route oral, time 28 day. To be noted: in vivo.
Series [3] in a line: Oral bioavailability in rat. Type of series: ADME, organism-based. To be noted: in vivo.
Series [4] is described as follows: Apparent oral clearance in male cynomolgus monkey at 150 mg/kg, po BID measured on day 8. The conditions noted are these: in vivo. Type of series: ADME, organism-based, Macaca fascicularis.
Series [5] is described as follows: Half life in male cynomolgus monkey at 75 mg/kg, po measured on day 1. Type of series: ADME, organism-based, Macaca fascicularis. To be noted: in vivo.
Series [6] is described as follows: Apparent oral clearance in female cynomolgus monkey at 225 mg/kg, po measured on day 1. Type of series: ADME, organism-based, Macaca fascicularis. The conditions noted are these: in vivo.
The nature of series [7]: Cmax in human up to 1200 mg administered bid. Type of series: ADME. More on the design: dose <=1200.
Series [8] can be described thus: Half life in male cynomolgus monkey at 15 mg/kg, iv measured on day 1. The conditions noted are these: in vivo. Type of series: ADME, organism-based, Macaca fascicularis.
Series [9] can be described thus: AUC (0 to 12 hrs) in human up to 1200 mg administered bid. Type of series: ADME. More on the design: time < 12 hr, dose <=1200.
Series [10] is described as follows: Volume of distribution in male cynomolgus monkey at 15 mg/kg, iv measured on day 1. Type of series: ADME, organism-based, Macaca fascicularis. The conditions noted are these: in vivo.
The nature of series [11]: AUC (0 to 24 hrs) in female cynomolgus monkey at 75 mg/kg, po BID measured on day 8. Type of series: ADME, organism-based, Macaca fascicularis. To be noted: in vivo. More on the design: time < 24 hr, route oral, dose 75 mg/kg.
The target of series [12] is T1, Cytochrome P450 2B6 (Homo sapiens, UniProt P20813).
T1 sequence (P20813 whole entry): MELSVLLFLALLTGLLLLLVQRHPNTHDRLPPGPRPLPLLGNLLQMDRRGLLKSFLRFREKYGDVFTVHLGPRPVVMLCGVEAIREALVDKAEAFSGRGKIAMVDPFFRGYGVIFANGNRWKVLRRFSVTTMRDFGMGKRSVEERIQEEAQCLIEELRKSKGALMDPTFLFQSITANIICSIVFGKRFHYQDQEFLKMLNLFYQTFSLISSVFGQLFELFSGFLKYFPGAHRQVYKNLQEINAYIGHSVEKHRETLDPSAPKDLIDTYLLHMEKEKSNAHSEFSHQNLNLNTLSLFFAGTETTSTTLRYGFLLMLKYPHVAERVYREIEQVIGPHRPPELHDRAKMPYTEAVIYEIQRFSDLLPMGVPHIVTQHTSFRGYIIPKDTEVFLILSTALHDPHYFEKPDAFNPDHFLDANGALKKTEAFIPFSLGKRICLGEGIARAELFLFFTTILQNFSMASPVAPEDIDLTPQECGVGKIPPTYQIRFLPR
The experiment in a line: Inhibition of CYP2B6 in human hepatocytes. Type of series: ADME, cell-based, Hepatocyte.

A short description of series [13]: Drug metabolism in cynomolgus monkey assessed as ratio of indoximod to parent compound at 75 to 675 mg/kg, po administered as single dose. To be noted: in vivo, dose 75-675 mg/kg. Type of series: ADME, organism-based, Macaca fascicularis.
A short description of series [14]: Solubility in simulated gastric fluid. Type of series: physicochemical.
A short description of series [15]: Toxicity in rat assessed as abnormal respiratory sounds at 150 to 180 mg/kg, po. Type of series: organism-based. To be noted: in vivo, dose 150-180 mg/kg.
The target of a further series is OAT3 (Homo sapiens, UniProt Q8TCC7). The experiment in a line: Inhibition of OAT3 (unknown origin) expressed in HEK293 cells. Type of series: cell-based.
In series [16] the target is T1, Cytochrome P450 2B6. The experiment in a line: Induction of CYP2B6 in human hepatocytes. Type of series: ADME, cell-based, Hepatocyte.
A short description of series [17]: Drug metabolism in mouse assessed as formation of M9 metabolite at 20 to 900 mg/kg. Type of series: ADME, organism-based. The conditions noted are these: in vivo, dose 20-900 mg/kg.
Series [18] in a line: Oral bioavailability in male cynomolgus monkey at 275 micromol/kg. Type of series: ADME, organism-based, Macaca fascicularis. To be noted: in vivo, at 275 µmol/kg.
Series [19] can be described thus: AUC (0 to 24 hrs) in male cynomolgus monkey at 15 mg/kg, iv measured on day 1. The conditions noted are these: in vivo. Type of series: ADME, organism-based, Macaca fascicularis. Set-up: time < 24 hr, route intravenous, dose 15 mg/kg.
The nature of series [20]: Half life in male cynomolgus monkey at 75 mg/kg, po BID measured on day 8. Type of series: ADME, organism-based, Macaca fascicularis. The conditions noted are these: in vivo.
The nature of series [21]: Genotoxicity in rat. Type of series: toxicity.
Series [22] is described as follows: Drug metabolism in cynomolgus monkey assessed as indoximod formation of by measuring indoximod Tmax at 75 to 675 mg/kg, po administered as single dose. Type of series: ADME, organism-based, Macaca fascicularis. To be noted: in vivo, dose 75-675 mg/kg.
A short description of series [23]: Drug metabolism in cynomolgus monkey assessed as ratio of indoximod to parent compound at 75 to 375 mg/kg, po BID administered […]. Type of series: ADME, organism-based, Macaca fascicularis. The conditions noted are these: in vivo, dose 75-375 mg/kg.
A short description of series [24]: AUC (0 to 12 hrs) in rat po BID measured on day 28. Type of series: ADME, organism-based. Set-up: time < 12 hr, route oral. To be noted: in vivo.
The nature of series [25]: Drug metabolism in cynomolgus monkey assessed as indoximod formation of by measuring indoximod Tmax at 15 mg/kg, iv administered as single dose. Type of series: ADME, organism-based, Macaca fascicularis. To be noted: in vivo.
For another series, the target named is T2, Cytochrome P450 1A2 (Homo sapiens, UniProt P05177).
T2 sequence (P05177 whole entry): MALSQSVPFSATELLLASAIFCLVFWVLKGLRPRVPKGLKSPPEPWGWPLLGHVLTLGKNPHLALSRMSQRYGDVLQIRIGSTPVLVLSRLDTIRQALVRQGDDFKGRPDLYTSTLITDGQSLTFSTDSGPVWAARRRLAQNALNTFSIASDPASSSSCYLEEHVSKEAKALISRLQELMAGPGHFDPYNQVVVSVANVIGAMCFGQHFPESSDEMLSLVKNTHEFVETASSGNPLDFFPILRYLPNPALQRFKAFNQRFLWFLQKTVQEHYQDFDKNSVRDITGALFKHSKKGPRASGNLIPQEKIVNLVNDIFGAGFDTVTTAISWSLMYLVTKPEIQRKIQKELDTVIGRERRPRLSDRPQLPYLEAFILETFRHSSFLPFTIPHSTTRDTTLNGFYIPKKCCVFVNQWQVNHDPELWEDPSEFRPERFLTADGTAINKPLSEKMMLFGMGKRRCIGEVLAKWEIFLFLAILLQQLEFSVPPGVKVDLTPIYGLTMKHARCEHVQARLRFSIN
The experiment in a line: Inhibition of CYP1A2 in human hepatocytes. Type of series: ADME, cell-based, Hepatocyte.

The nature of series [26]: AUC (0 to 24 hrs) in male cynomolgus monkey at 75 mg/kg, po BID measured on day 8. Type of series: ADME, organism-based, Macaca fascicularis. More on the design: time < 24 hr, route oral, dose 75 mg/kg. To be noted: in vivo.
Series [27] is described as follows: Toxicity in monkey assessed as change in behavioral parameter. More on the design: species or system Macaca mulatta. To be noted: rhesus monkey, in vivo.
Series [28] in a line: Stability in human plasma assessed as parent compound remaining measured after 24 hrs by LC-MS/MS analysis. Type of series: ADME, cell-free. The conditions noted are these: read-out: Stabilty.
Series [29] is described as follows: AUC (0 to 12 hrs) in male rat at 150 mg/kg, po BID measured on day 28. Set-up: time < 12 hr, route oral, dose 150 mg/kg. To be noted: in vivo. Type of series: ADME, organism-based.
Series [30] is described as follows: Drug metabolism in cynomolgus monkey assessed as ratio of indoximod to parent compound at 15 mg/kg, iv administered as single dose. Type of series: ADME, organism-based, Macaca fascicularis. To be noted: in vivo.
The nature of series [31]: Drug metabolism in CD1 mouse hepatocytes assessed as unmetabolized compound at 10 uM incubated for 120 mins by UPLC-QTOF-PDA analysis. Type of series: ADME, cell-based, Hepatocyte. To be noted: read-out: Drug metabolism.
The target in another series is Cytochrome P450 3A4 (Homo sapiens, UniProt P08684). Put plainly: Induction of CYP3A4 in human hepatocytes. Type of series: ADME, cell-based, Hepatocyte.
The target in another series is Cytochrome P450 2D6 (Homo sapiens, UniProt P10635). The experiment in a line: Inhibition of CYP2D6 in human hepatocytes. Type of series: ADME, cell-based, Hepatocyte.
Series [32] is described as follows: Toxicity in cynomolgus monkey assessed as NOAEL at 150 mg/kg, po BID administered for 28 days. The conditions noted are these: in vivo, time 28 day. Type of series: organism-based, Macaca fascicularis.

Cytochrome P450 3A4, sequence (P08684 whole entry): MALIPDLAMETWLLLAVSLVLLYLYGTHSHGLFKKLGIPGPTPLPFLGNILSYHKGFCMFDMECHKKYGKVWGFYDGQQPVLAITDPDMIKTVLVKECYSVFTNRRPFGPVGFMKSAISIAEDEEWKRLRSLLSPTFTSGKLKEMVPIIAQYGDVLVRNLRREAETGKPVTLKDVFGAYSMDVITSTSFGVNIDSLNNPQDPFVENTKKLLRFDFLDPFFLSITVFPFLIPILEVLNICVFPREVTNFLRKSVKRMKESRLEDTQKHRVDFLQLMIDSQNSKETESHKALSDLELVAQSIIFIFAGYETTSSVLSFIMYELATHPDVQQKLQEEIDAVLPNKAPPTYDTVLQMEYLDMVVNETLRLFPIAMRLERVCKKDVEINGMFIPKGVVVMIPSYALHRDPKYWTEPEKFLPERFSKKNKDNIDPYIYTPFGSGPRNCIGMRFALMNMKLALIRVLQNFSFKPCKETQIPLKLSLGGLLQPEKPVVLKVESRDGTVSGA
Cytochrome P450 2D6, sequence (P10635 whole entry): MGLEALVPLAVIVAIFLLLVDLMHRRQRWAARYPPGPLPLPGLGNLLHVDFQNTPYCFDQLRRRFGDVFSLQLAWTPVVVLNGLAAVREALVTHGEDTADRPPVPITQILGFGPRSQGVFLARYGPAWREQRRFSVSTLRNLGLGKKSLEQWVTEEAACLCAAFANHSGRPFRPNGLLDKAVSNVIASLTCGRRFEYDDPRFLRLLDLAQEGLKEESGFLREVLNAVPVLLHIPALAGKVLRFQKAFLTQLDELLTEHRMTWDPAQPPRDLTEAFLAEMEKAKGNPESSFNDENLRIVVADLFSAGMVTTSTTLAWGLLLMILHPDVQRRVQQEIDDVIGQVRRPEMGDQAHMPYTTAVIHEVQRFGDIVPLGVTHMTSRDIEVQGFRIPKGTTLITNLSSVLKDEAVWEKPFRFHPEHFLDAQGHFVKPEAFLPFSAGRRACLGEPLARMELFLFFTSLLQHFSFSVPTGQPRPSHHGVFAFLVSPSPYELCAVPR
OAT3, sequence (Q8TCC7 whole entry, looked up): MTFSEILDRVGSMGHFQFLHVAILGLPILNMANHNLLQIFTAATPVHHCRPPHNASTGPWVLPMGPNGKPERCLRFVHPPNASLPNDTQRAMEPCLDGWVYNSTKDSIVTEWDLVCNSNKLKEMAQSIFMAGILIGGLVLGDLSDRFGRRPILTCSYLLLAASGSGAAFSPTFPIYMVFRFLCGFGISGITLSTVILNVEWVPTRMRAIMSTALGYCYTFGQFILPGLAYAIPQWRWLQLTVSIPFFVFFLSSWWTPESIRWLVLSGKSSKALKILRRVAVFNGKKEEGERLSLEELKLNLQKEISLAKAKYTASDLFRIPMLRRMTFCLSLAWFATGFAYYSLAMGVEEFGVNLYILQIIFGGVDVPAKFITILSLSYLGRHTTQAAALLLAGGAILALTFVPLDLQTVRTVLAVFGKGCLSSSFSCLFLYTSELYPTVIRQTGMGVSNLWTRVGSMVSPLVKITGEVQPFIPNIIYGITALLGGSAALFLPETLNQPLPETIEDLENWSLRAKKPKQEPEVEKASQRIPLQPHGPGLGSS

Broadly, the Vd is the apparent volume that relates the amount in the body to the concentration in plasma or blood. The Cmax is the highest concentration seen after dosing. As a reminder, the bioavailability is dose-corrected exposure relative to a reference, in per cent. The CL/F is clearance divided by bioavailability, as obtained after extravascular dosing. The term half-life denotes how long it takes for the measured level to halve. What is called AUC is the area under the concentration-time curve, a measure of exposure. Turning to `Cn1cc(C[C@@H](N)C(=O)O)c2ccccc21` [INDOXIMOD], the Vd in series [1] was determined as 0.9 L/kg. Further, the figures for the Cmax in series [2] and in [7] were 103 µM and 13.7 µM, respectively. The molecule further registered a bioavailability in series [3] of 50%. The CL/F is 0.828 L/h/kg in series [4] and 4.93 L/h/kg in [6]. Besides, the half-life is 2.7 h in series [5] and 2 h in [8]. This molecule gave an AUC at 12 h in series [9] of 83 µM·h.

As a reminder, the IC50 is the concentration that inhibits the measured activity by half. The solubility is the dissolved amount per volume that the medium holds. The Tmax is the time from dosing to the highest level. In general, NOAEL refers to the highest dose or exposure tested at which no adverse effect was seen. `CCOC(=O)[C@@H](Cc1cn(C)c2ccccc12)NC(=O)[C@@H](N)CC(C)C.Cl`: the Vd in series [10] stood at 309 L/kg. In addition, the AUC at 24 h in series [11] turned out to be 0.0356 µM·h; in series [26], 177 µM·h. Besides, the IC50 is > 50 µM against Cytochrome P450 2B6 [12], > 50 µM against OAT3, > 50 µM on Cytochrome P450 1A2 and 19 µM against Cytochrome P450 2D6. Also, the Ratio in series [13], in series [23] and in series [30] was 690 throughout. Also, in [14], the solubility is 17.1 mg/mL. The Activity entry in [15] is “Toxic”; on Cytochrome P450 2B6 [16], “Not Active”; in series [21], “Non-Toxic”; in series [27] it was “Non-Toxic”; on Cytochrome P450 3A4, “Not Active”. Besides, in series [17], the Drug metabolism entry is recorded as “Metabolite_Detected”. In series [18], the F came out at 10%. In series [19], this molecule registered an AUC of 0.309 µM·h. In series [20], this molecule had a half-life of 1.8 h. In addition, the Tmax in series [22] and in [25] was 1 h in each case. For the same molecule, the values for the AUC at 12 h in series [24] and in series [29] were 953 µM·h and 1410 µM·h, respectively. Further, the remaining at 24 h in series [28] worked out at 6%. Also, the remaining at 2 h, 10 µM in series [31] amounted to 0.3%. The NOAEL at 672 h in series [32] amounted to 120 mg/kg.

The values are drawn from ChEMBL document CHEMBL4837181 (Eur J Med Chem, 2020).
